Measured values reported in US20090075921A1, “Bone/joint disease sensitivity gene and use thereof” (Riken, priority 2004, published 2009).

Key:
[1] = tested on: ATDC5; assay: Chondrocyte differentiation experiments in ATDC5 with CaM inhibitor; assay type: cell-based, mouse; settings: W-7 20 μM in insulin-containing differentiation medium
Text: The embryonic tumor-derived cloned cell line ATDC5 is an in vitro chondrocyte differentiation model that enables the reproduction of all differentiation stages of chondrocytes, from initial differentiation to terminal differentiation, in the presence of insulin. To analyze the role of calmodulin (CaM) in chondrocyte differentiation, the present inventors cultured ATDC5 in the presence of W-7, which is a CaM inhibitor, and quantified the expression levels of chondrocyte differentiation markers, i.e., the type II collagen gene (Col2a1), the aggrecan gene (Agc1), and the type X collagen gene (Col10a1). […] Medium exchange was performed every two days; cultivation was continued for up to 22 days, counted from the day of exchange to the differentiation medium. […] Quantitative real-time PCR was performed using ABI PRISM 7700 (Applied Biosystems). PCR reactions were performed using a system of a final volume of 20 μl [reverse transcription reaction mixture 1 μl, QuantiTect SYBR Green PCR (QIAGEN) 10 μl, 10 μM forward primer 0.6 μl, 10 μM reverse primer 0.6 μl, […]]. […] The copy number of the target gene in each sample was calculated from a calibration curve prepared using serial dilutions of target gene DNA of a known copy number. The expression level of each gene was corrected by total RNA content calculated with the expression level of Gapdh as the index.

[2] = tested on: RCJ3.1C5.18 cells; assay: Ionomycin stimulation experiments in chondrocyte precursor cell line RCJ3.1C5.18; assay type: cell-based, rat; settings: ionomycin 2 μM, W-7 0 to 10 μM, 24 hours
Experimental: RCJ3.1C5.18 cells are cells having characters as chondrocyte precursor cells, and showing increased expression of the type II collagen gene and the aggrecan gene in response to stimulation with ionomycin, which is a reagent that raises intracellular calcium concentrations. The present inventors analyzed the involvement of CaM in this reaction using W-7, which is a CaM inhibitor. For ordinary culture, DMEM (Sigma) comprising 10% FBS and antibiotics (100 U/ml penicillin G and 100 μg/ml streptomycin) was used. The stimulation experiments were performed by the procedure shown below. Cells were inoculated to a 12-multiwell plate at 1×10^5 cells/well. […] Quantitative real-time PCR was performed using ABI PRISM 7700 (Applied Biosystems). PCR reactions were performed using a system of a final volume of 20 μl [reverse transcription reaction mixture 1 μl, QuantiTect SYBR Green PCR (QIAGEN) 10 μl, 10 μM forward primer 0.6 μl, 10 μM reverse primer 0.6 μl, […]]. […] The copy number of the target gene in each sample was calculated from a calibration curve prepared using serial dilutions of target gene DNA of a known copy number. The expression level of each gene was corrected by total RNA content calculated with the expression level of GADPH as the index.

[3] = tested on: NHAC; assay: Time course of asporin gene expression by TGF-β1 in NHAC; assay type: cell-based, human; settings: TGF-β1 10 ng/ml
Experimental: A time course of the expression of the asporin gene by TGF-β1 in NHAC was examined as described below. Cells were inoculated to a 12-well plate at 1×10^5 cells/well, and cultured in a DMEM/F12 containing 10% FBS until they became confluent. The medium was exchanged with a DMEM/F12 containing 0.2% FBS, and the cells were cultured for 24 hours, after which TGF-β1 (10 ng/ml) was added, total RNA was extracted over time, and the expression levels of the asporin and GAPDH genes were examined. As a result, the expression level of the asporin gene maximized when the cells were cultured in the presence of TGF-β1 (10 ng/ml) for 12 hours, and thereafter the expression level decreased over time (FIG. 46).

[4] = tested on: NHAC; assay: MTT assay of TGF-β1-stimulated cell growth in NHAC; assay type: cell-based, human; settings: TGF-β1 40 ng/ml alone, 5 days
Experimental: NHAC was inculated to a 12-well plate at 1×10^5 cells/well, and cultured in a DMEM/F12 containing 10% FBS supplemented with TGF-β1 (40 ng/ml) and asporin (5 or 20 μg/ml) for 5 days, after which the degree of cell growth was examined by the MTT assay method described below. Specifically, 3-(4,5-dimethyl-2-thiazolyl)-2,5-diphenyl-2H-tetrazolium bromide (MTT, Dojindo Laboratory) was dissolved in DMEM/F12 to obtain a concentration of 1 mg/ml, the solution was added to the cells after the medium was removed by suction, and the cells were cultured at 37° C. for 1 hour. Thereafter the medium containing MTT was discarded, and the cells were subjected to extraction treatment using a Lysis reagent (86% isopropanol, 40 mM hydrochloric acid, 1% SDS). This cell lysate was transferred to a 96-well plate, and the absorbance at 550 nm was measured using a microplate reader.

[5] = tested on: NHAC; assay: Articular chondrocyte differentiation maintenance in redifferentiated NHAC; assay type: cell-based, human; settings: 7 days, TGF-β1 40 ng/ml, asporin 20 μg/ml where added
Experimental: NHAC was redifferentiated by alginate beads culture for 2 weeks using a chondrocyte differentiation medium (CDM) manufactured by Cambrex Company according to the protocol attached. These redifferentiated cells were inoculated to a Lab-Tek II chamber slide (Nunc), a DMEM/F12 containing 5% FBS, ITS (Sigma), and TGF-β1 (40 ng/ml) was added, and the cells were allowed to maintain the degree of differentiation thereof; the effects of addition of asporin (20 μg/ml) on the cell morphology and extracellular proteoglycan accumulation were examined.

[6] = tested on: ATDC5; assay: Induction with TGF-β1 of asporin gene expression in ATDC5; assay type: cell-based, mouse; settings: TGF-β1 10 ng/ml, 24 hours
Experimental: (§1) In various cartilage lineage cell lines, the potential of TGF-β1 for inducing asporin gene expression was examined by the method described below. OUMS-27 was cultured in a DMEM containing 10% FBS, CS-OKB was cultured in an RPMI1640 containing 10% FBS, and normal human articular chondrocytes of knee joint (NHAC-kn, P7, monolayer, Clonetics) were cultured using Chondrocyte Growth Medium (CGM, Clonetics). ATDC5 was cultured using the medium 1-2 described in Example 13. For the induction experiments in the cartilage lineage cell lines, cells were cultured in the above-described media until they became confluent, after which the medium was exchanged with a medium containing 0.2% FBS, and the cells were cultured for 12 hours; TGF-β1 (10 ng/ml) was added, and the cells were further cultured for 24 hours. RNA extraction, cDNA synthesis, and real-time PCR were performed by the methods described in Example 12.

[7] = tested on: NHAC-kn; assay: Induction with TGF-β1 of asporin gene expression in NHAC-kn; assay type: cell-based, human; settings: TGF-β1 10 ng/ml, 24 hours
Experimental: as §1

[8] = tested on: OUMS-27; assay: Induction with TGF-β1 of asporin gene expression in OUMS-27; assay type: cell-based, human; settings: TGF-β1 10 ng/ml, 24 hours
Experimental: as §1

Compound | increases in the expression levels of Col2a1 and Agc1 ([1]; real-time PCR) | expression level of Col10a1 ([1]; up to Day 22) | ionomycin-induced expression of the type II collagen gene and the aggrecan gene [2] | culture time at which the expression level of the asporin gene maximized [3] | expression level of asporin after 3 days in the presence of TGF-β1 ([3]; vs control) | cell growth of NHAC (MTT, absorbance at 550 nm) [4] | Safranine-O stainability (extracellular proteoglycan) [5] | cell morphology [5] | expression of asporin with TGF-β1 stimulation [6] | expression of the asporin gene with TGF-β1 stimulation [7] | expression of the asporin gene with TGF-β1 stimulation [8]
NCCCCCCNS(=O)(=O)c1cccc2c(Cl)cccc12 [W-7] | suppressed to about half | further rose | suppressed dose-dependently | – | – | – | – | – | – | – | –
TGF-β1: TGF-β isoform, regulatory factor of cartilage differentiation used as stimulus | – | – | – | 12 h | smaller than that without induction | increased | positive | egg-like morphology | tended to be slightly suppressed | significant increases | significant increases
